Measured values reported in patent publication US20120101099A1, “HISTONE DEACETYLASE INHIBITORS” (ANTHEM BIOSCIENCES PRIVATE LIMITED, priority 2009, published 2012).

Experiments:
[1] = tested on: A549 human lung xenograft; test: In vivo anti-cancer activity using a human tumor xenograft; set-up: species or system athymic nude mice (nu/nu); settings: for % TGI on Day 21: p.o, once daily
Procedure: The study was carried out in athymic nude mice (nu/nu) of BALB-c background at age 6-8 weeks. The animals were maintained in Individually Ventilated cages in a protected and controlled environment. All animal handling and procedures were carried out in a laminar air flow hood, under anesthesia when necessary. The studies were conducted in compliance with protocols approved by Anthem Biosciences Institutional Animal Ethics Committee (IAEC).
Human cell lines derived from tumors of lung were selected for evaluation. The tumor cells cell lines were grown and expanded in RPMI 1640 (supplemented with 1.5 mM L-glutamine and 10% FBS) Subconfluent monolayers were harvested, pelleted and resuspended in RPMI 1640 medium prior to counting on a haemocytometer. Viable cells were counted using trypan blue exclusion and a cell suspension was made in cold media with a concentration of 5×10^6/ml.
[…] of the cell suspension containing 10^6 cells of greater than 90% viability was mixed with an equal volume of Matrigel (10 mg/ml) in PBS (pH7.4) and was kept at 4 deg C. Nude mice were anaesthetized and were injected subcutaneously in the flank region with 0.1 ml using a 25 gauge needle. Animals were monitored daily during the period between inoculation and palpable tumor growth. Tumor size was measured with a digital Vernier caliper and tumor-bearing mice were randomized into control and treatment groups (n=10) when sufficient tumor volume was attained (approx. 100 mm3). The following formula was used to calculate the tumor volume:
Tumor volume=(length×width2)/2.
[…] Tumor volume and was body weight was measured three times per week.

[2] = Oral bioavailability and pharmacokinetics studies; type: in vivo, male Balb/c mice; settings: male Balb/c mouse
Procedure: The studies were performed to determine the oral bioavailability and pharmacokinetics of test compounds in male Balb/c mice. Study was performed after obtaining the Institutional Animal Ethics Committee (IAEC) permission. Mice aged 5 to 6 weeks weighing around 25 to 30 g were used for this study. The animals were fasted overnight with free access to water. Animals were administered test compounds by oral route at a 50 mg/kg body weight (formulation: 0.5% methylcellulose in water and 0.1% tween 80. Dose volume 10 ml/kg b.w.) or intravenous route at a dose 10 mg/kg b.w. […] (formulation: 0.9% saline. Dose volume 10 ml/kg b.w.) Blood samples were collected at various time points during the next 24 hours post dose. The blood samples were centrifuged at 3000 g for 5 minutes at 4° C. and the corresponding plasma samples were collected in clean pre-labeled tubes. Then, each sample was subjected to a suitable extraction method and analysed by LC-MS/MS (API 3200 LC-MS/MS system). Data was analyzed using WinNonlin version 5.2 (Pharsight).

[3] = target: HDAC1 (Homo sapiens, UniProt Q13547); test: Isoform selectivity assay, recombinant HDAC isoforms
Procedure: (§1) Following the HDAC inhibition assay using Hela nuclear extract, isoform selectivity was tested using recombinant HDAC isoforms (Biomol, USA).

[4] = tested on: recombinant HDAC isoforms; test: Isoform selectivity assay (overall statement); settings: HDAC1, HDAC2, HDAC3, HDAC6, HDAC8
Procedure: as §1

[5] = target: HDAC3 (Homo sapiens, UniProt O15379); test: Isoform selectivity assay, recombinant HDAC isoforms
Procedure: as §1

[6] = target: HDAC6 (Homo sapiens, UniProt Q9UBN7); test: as above
Procedure: as §1

[7] = target: HDAC8 (Homo sapiens, UniProt Q9BY41); test: as above
Procedure: as §1

[8] = target: T1, HDAC2 (Homo sapiens, UniProt Q92769); test: biochemical
T1 construct: purchased Biomol, USA
Procedure: Assay was performed in 96-well black microplate and total volume of the assay was 100 μL. Hela nuclear extract was diluted HDAC assay buffer (final concentration of 3.0 μg/mL). Enzyme mixture was made of 10 μL of diluted enzyme and 30 μL of HDAC buffer. 40 μl of enzyme mixture followed by 10 μL of test compound (final concentration from 0.01 to 10 μM) or vehicle (control) was added to each well. The plate was pre-incubated at 37° C. for 10 minutes. The HDAC reaction was started by adding 50 μl of HDAC substrate Boc-Lys (Ac)-AMC (Anaspec, Inc Fremont, Calif., USA). The plate was incubated at 37° C. for 45 minutes. The reaction was stopped by adding 50 μL of Trypsin stop solution and plate further incubated at 37° C. for 15 minutes. Measuring the fluorescence at excitation wavelength of 360 nm and emission wavelength of 460 nm monitored the release of AMC. Buffer alone and substrate alone served as blank.

HDAC8, sequence (Q9BY41 whole entry): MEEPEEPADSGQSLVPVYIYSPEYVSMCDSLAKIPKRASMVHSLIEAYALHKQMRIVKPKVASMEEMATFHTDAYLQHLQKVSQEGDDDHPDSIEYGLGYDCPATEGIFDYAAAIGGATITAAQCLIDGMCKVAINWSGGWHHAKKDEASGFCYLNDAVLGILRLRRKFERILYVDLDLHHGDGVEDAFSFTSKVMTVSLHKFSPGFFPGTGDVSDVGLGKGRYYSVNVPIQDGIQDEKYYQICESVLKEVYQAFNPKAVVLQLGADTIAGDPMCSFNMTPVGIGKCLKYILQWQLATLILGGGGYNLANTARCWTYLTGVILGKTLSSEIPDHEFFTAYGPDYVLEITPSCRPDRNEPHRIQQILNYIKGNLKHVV
HDAC1, sequence (Q13547 whole entry, canonical isoform): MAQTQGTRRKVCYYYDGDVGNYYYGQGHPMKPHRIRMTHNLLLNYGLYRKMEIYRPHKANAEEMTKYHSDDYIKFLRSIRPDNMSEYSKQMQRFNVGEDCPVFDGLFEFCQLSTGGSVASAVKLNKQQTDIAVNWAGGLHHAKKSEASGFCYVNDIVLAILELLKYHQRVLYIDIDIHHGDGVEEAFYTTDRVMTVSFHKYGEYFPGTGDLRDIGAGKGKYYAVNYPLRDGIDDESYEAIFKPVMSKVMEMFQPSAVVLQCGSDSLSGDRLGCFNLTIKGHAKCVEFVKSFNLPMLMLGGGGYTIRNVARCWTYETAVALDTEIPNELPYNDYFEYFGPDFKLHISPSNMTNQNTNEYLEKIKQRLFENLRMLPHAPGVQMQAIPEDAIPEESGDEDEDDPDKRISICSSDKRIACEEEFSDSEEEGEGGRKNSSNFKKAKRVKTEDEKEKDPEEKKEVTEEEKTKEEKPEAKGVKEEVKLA
HDAC3, sequence (O15379 whole entry, canonical isoform): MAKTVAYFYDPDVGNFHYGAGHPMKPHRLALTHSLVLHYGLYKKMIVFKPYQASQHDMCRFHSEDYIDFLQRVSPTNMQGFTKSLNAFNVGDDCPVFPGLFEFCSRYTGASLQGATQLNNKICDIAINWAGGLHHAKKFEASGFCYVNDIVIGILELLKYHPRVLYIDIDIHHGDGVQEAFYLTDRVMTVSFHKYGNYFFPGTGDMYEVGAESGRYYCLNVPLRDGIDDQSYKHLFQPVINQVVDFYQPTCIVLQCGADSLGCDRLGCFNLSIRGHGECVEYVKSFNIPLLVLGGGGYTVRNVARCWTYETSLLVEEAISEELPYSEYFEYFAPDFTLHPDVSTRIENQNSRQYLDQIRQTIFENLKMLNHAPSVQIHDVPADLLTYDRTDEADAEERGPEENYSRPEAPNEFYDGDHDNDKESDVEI
T1 sequence (Q92769 whole entry): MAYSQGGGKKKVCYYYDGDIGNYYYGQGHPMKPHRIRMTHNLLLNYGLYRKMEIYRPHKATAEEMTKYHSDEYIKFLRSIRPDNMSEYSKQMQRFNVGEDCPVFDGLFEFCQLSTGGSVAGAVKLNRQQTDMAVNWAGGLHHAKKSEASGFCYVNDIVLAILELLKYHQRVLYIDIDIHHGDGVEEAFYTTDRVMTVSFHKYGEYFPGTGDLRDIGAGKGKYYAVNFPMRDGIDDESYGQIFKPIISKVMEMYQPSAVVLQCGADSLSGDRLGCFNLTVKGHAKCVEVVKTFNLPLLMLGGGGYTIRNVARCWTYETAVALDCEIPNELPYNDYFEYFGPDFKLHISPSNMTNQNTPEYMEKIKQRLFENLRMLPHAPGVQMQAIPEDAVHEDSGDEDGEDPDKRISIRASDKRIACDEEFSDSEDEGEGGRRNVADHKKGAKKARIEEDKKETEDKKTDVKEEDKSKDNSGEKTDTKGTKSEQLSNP
HDAC6, sequence (Q9UBN7 whole entry): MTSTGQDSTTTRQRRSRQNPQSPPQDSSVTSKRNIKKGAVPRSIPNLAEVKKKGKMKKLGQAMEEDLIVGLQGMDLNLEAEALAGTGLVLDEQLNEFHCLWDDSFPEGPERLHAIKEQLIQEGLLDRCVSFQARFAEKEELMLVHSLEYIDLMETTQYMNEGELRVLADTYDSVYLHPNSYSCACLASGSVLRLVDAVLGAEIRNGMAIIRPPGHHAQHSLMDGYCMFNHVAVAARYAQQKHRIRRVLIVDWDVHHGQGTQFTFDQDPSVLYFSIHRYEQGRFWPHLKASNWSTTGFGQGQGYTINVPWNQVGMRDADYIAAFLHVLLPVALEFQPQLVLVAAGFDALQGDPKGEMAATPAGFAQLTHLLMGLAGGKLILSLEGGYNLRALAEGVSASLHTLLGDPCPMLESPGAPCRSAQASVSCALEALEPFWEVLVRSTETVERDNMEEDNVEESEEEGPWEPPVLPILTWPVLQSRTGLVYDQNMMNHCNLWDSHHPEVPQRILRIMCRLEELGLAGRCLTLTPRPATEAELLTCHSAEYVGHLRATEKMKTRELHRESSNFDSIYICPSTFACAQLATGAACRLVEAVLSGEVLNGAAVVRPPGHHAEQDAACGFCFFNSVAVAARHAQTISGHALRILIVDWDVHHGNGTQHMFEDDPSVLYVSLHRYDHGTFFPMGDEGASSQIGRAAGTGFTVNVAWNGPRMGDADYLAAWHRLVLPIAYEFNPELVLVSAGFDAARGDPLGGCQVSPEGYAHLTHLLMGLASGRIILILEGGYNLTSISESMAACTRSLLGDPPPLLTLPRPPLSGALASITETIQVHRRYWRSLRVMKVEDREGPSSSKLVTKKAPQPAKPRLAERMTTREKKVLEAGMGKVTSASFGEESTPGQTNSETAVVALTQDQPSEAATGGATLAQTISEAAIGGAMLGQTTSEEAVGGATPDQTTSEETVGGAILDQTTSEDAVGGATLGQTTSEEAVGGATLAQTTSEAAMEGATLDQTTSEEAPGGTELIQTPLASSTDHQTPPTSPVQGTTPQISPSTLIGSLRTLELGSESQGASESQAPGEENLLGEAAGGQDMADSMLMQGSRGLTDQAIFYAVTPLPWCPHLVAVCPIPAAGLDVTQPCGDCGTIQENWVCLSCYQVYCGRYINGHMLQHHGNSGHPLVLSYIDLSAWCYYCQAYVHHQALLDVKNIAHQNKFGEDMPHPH

SMILES | % TGI on Day 21 ([1]; 150 mg/kg) | AUC last 0 to 24 h ([2]; oral 50 mg/kg) | T1/2 ([2]; oral 50 mg/kg) | bioavailability ([2]; plasma, oral 50 mg/kg vs intravenous) | Cmax ([2]; plasma, oral 50 mg/kg) | Tmax ([2]; plasma, oral 50 mg/kg) | IC50 [3] | isoform selectivity [4] | IC50 [5] | IC50 [6] | % TGI on Day 21 ([1]; 12.5 mg/kg, listed as Ex. 8) | % TGI on Day 21 ([1]; 12.5 mg/kg, listed as Ex.8) | % TGI on Day 21 ([1]; 25 mg/kg, listed as Ex. 8) | % TGI on Day 21 ([1]; 25 mg/kg, listed as Ex.8) | % TGI on Day 21 ([1]; 50 mg/kg, listed as Ex. 8) | % TGI on Day 21 ([1]; 50 mg/kg, listed as Ex.8) | body weight compared to the vehicle control group ([1]; 21 days oral treatment) | IC50 [7] | IC50 [8]
O=C(CCCCCCC(=O)Nc1ccccc1)NO [SAHA, Suberoylanilide Hydroxamic Acid, reference compound] | 53.6% | 347 ng·h/mL | 48 min | 11 ± 3% | 580 ng/mL | 4.8 min |  |  |  |  |  |  |  |  |  |  |  |  | 
O=C(NO)c1ccc(Cn2cc(-c3ccc(CN4CCCC4)cc3)nn2)cc1 [Example 8, N-Hydroxy-4-[4-(4-pyrrolidin-1-ylmethyl-phenyl)-[1,2,3]triazol-1-ylmethyl]-benzamide] |  |  |  |  |  |  | 25 nM | pan-HDAC inhibitor | 2 nM | 11 nM | 27.3% | 27% | 36.9% | 32% | 52.1% | 57% | no significant reduction in body weight | 282 nM | 29 nM
